Measured values: paper PMC9079959, “Substituted spirooxindole derivatives as potent anticancer agents through inhibition of phosphodiesterase 1” (RSC Advances, 2018)
Like-named read-outs stand apart in the source and are kept apart here.

What was measured:
[1] = system: Vero-B cells; experiment: MTT cytotoxicity assay, normal cells Vero-B; format: cell-based, African green monkey; conditions: 48 h
Description: (§1) The cytotoxic activity of the compounds was tested against different mammalian cancer cells, prostate carcinoma cells (PC-3), hepatocellular carcinoma (HepG2) and colon cancer cells (HCT-116). African green monkey kidney cells (Vero-B) were used as normal cells to study the selectivity towards the cancer cells. The cell lines were obtained from the American Type Culture Collection (ATCC). The cells were cultivated at 37 °C and 10% CO2 in DMEM (Lonza, Germany) medium supplemented with 10% fetal bovine serum (Lonza, Germany), 100 IU ml^−1 penicillin and 100 μg ml^−1 streptomycin (Lonza, Germany). […] The spirooxindole derivatives were solubilized in DMSO and stored at −20 °C. The viability of the cells was quantified using 3-(4,5-dimethylthiazol-2-yl)-2,5-diphenyl tetrazolium bromide (MTT), which measures the activity of mitochondrial succinate dehydrogenase in viable cells.[45,46]
(§2) The cells were seeded in 96-well plates at a concentration of 5 × 10^4 cells per ml (100 μl per well). […] DMSO was used as a negative control (0.1%). The cells were incubated for 48 h. After that, 15 μl of MTT (5 mg ml^−1 in PBS) was added to each well and incubated for another 4 h. The formazan crystals were solubilized by 100 μl of acidified SDS solution (10% SDS/0.01 N HCl in PBS). The absorbance was measured after 14 h of incubation at 37 °C and under 5% CO2 at 570 nm by using a BioTek microplate reader. Each experiment was repeated 3 times and a standard deviation was calculated (SD±). […] The growth of the cells was monitored and the images were acquired by Gx microscopes (GXMGXD202 Inverted Microscope) at 10× magnification.

[2] = system: HepG2 cells; experiment: MTT cytotoxicity assay, hepatocellular carcinoma HepG2; format: cell-based; conditions: for IC50: Homo sapiens, HepG2; for SI (selectivity index): IC50 normal (VERO-B) / IC50 cancer (HepG2)
Description: as §1, §2

[3] = system: HCT-116 cells; experiment: MTT cytotoxicity assay, colorectal cancer cell line HCT-116; format: cell-based; conditions: for SI (selectivity index): IC50 normal (VERO-B) / IC50 cancer (HCT-116)
Description: as §1, §2

[4] = system: PC-3 cells; experiment: MTT cytotoxicity assay, prostate cancer cell line PC-3; format: cell-based; conditions: for SI (selectivity index): IC50 normal (VERO-B) / IC50 cancer (PC-3)
Description: as §1, §2

[5] = MTT, 48 h, ± SD of 3 experiments, read-out: HepG2 (IC50)
[6] = MTT, 48 h, read-out: HepG2 (IC50, μg ml^−1)
[7] = Homo sapiens, HCT-116, MTT, 48 h, ± SD of 3 experiments, read-out: HCT-116 (IC50)
[8] = Homo sapiens, HCT-116, MTT, 48 h, read-out: HCT-116 (IC50, μg ml^−1)
[9] = Homo sapiens, PC-3, MTT, 48 h, ± SD of 3 experiments, read-out: PC-3 (IC50)
[10] = Homo sapiens, PC-3, MTT, 48 h, read-out: PC-3 (IC50, μg ml^−1)

SMILES: O=C(c1c[nH]c2ccccc12)[C@@H]1[C@@H](c2ccc(C(F)(F)F)cc2)[C@@H]2CCCN2[C@]12C(=O)Nc1ccccc12 [4k]
- IC50 ([1]; Chlorocebus sabaeus, Vero B): 22 µM
- IC50 [2, 5]: 10 ± 1.25 µM
- IC50 [2, 6]: 5.2 µg/mL
- SI (selectivity index) [2]: 2.2
- IC50 [3, 7]: 9 ± 0.5 µM
- IC50 [3, 8]: 4.6 µg/mL
- SI (selectivity index) [3]: 2.4
- melting point: 153 to 155 °C
- IC50 [4, 9]: 9 ± 0.2 µM
- IC50 [4, 10]: 4.6 µg/mL

SMILES: COc1ccc(C2[C@@H](C(=O)c3c[nH]c4ccccc34)[C@]3(C(=O)Nc4ccccc43)N3CCC[C@@H]23)cc1 (stereo partly drawn) [4e, (2′R,3S,7a′S)-2′-(1H-Indole-3-carbonyl)-1′-(4-methoxyphenyl)-1′,2′,5′,6′,7′,7a′-hexahydrospiro[indoline-3,3′-pyrrolizin]-2-one]
- IC50 ([1]; Chlorocebus sabaeus, Vero B): 26 µM
- IC50 [2, 5]: 17.3 ± 3 µM
- IC50 [2, 6]: 8.3 µg/mL
- SI (selectivity index) [2]: 1.5
- IC50 [3, 7]: 26 ± 2 µM
- IC50 [3, 8]: 12.4 µg/mL
- SI (selectivity index) [3]: 1
- melting point: 122 to 124 °C
- IC50 [4, 9]: 15.5 ± 2 µM
- IC50 [4, 10]: 7.4 µg/mL
- SI (selectivity index) [4]: 1.7

SMILES: O=C(c1c[nH]c2ccccc12)[C@@H]1C(c2ccc(Cl)cc2)[C@@H]2CCCN2[C@@]12C(=O)Nc1ccccc12 (stereo partly drawn) [4c, (2′R,3S,7a′S)-1′-(4-Chlorophenyl)-2′-(1H-indole-3-carbonyl)-1′,2′,5′,6′,7′,7a′-hexahydrospiro[indoline-3,3′-pyrrolizin]-2-one]
- IC50 ([1]; Chlorocebus sabaeus, Vero B): 22 µM
- IC50 [2, 5]: 8 ± 0.5 µM
- IC50 [2, 6]: 3.8 µg/mL
- SI (selectivity index) [2]: 2.8
- IC50 [3, 7]: 20 ± 1.5 µM
- IC50 [3, 8]: 9.6 µg/mL
- SI (selectivity index) [3]: 1.1
- melting point: 165 to 167 °C
- IC50 [4, 9]: 11.8 ± 1.3 µM
- IC50 [4, 10]: 5.7 µg/mL
- SI (selectivity index) [4]: 1.9

SMILES: O=C(c1c[nH]c2ccccc12)[C@@H]1C(c2ccc(Br)cc2)[C@@H]2CCCN2[C@@]12C(=O)Nc1ccccc12 (stereo partly drawn) [4f, (2′R,3S,7a′S)-1′-(4-Bromophenyl)-2′-(1H-indole-3-carbonyl)-1′,2′,5′,6′,7′,7a′-hexahydrospiro[indoline-3,3′-pyrrolizin]-2-one]
- IC50 ([1]; Chlorocebus sabaeus, Vero B): 30 µM
- IC50 [2, 5]: 12 ± 1.5 µM
- IC50 [2, 6]: 6.3 µg/mL
- SI (selectivity index) [2]: 2.5
- IC50 [3, 7]: 21 ± 1.3 µM
- IC50 [3, 8]: 11 µg/mL
- SI (selectivity index) [3]: 1.4
- melting point: 101 to 102 °C
- IC50 [4, 9]: 16.3 ± 2.5 µM
- IC50 [4, 10]: 8.6 µg/mL
- SI (selectivity index) [4]: 1.8

SMILES: N.N.[Cl][Pt][Cl] [Cisplatin, cis-diamineplatinum(II) dichloride, reference compound]
- IC50 [1]: 5 µM
- HepG2 (IC50, μg ml^−1) ([2]; MTT, 48 h): 1.7 µg/mL
- HCT-116 (IC50, μg ml^−1) ([3]; MTT, 48 h): 3.8 µg/mL
- IC50 ([3]; MTT, 48 h, ± SD of 3 experiments, read-out: HCT-116 (IC50)): 12.6 ± 0.4 µM
- PC-3 (IC50, μg ml^−1) ([4]; MTT, 48 h): 1.5 µg/mL
- IC50 ([4]; MTT, 48 h, ± SD of 3 experiments, read-out: PC-3 (IC50)): 5 ± 0.45 µM

SMILES: Cc1ccc(C2[C@@H](C(=O)c3c[nH]c4ccccc34)[C@]3(C(=O)Nc4ccccc43)N3CCC[C@@H]23)cc1 (stereo partly drawn) [4b, (2′R,3S,7a′S)-2′-(1H-Indole-3-carbonyl)-1′-(p-tolyl)-1′,2′,5′,6′,7′,7a′-hexahydrospiro[indoline-3,3′-pyrrolizin]-2-one]
- IC50 ([1]; Chlorocebus sabaeus, Vero B): 26 µM
- IC50 [2, 5]: 11.8 ± 2 µM
- IC50 [2, 6]: 5.4 µg/mL
- SI (selectivity index) [2]: 2.2
- IC50 [3, 7]: 21 ± 2 µM
- IC50 [3, 8]: 9.7 µg/mL
- SI (selectivity index) [3]: 1.2
- melting point: 174 to 176 °C
- IC50 [4, 9]: 16.3 ± 2 µM
- IC50 [4, 10]: 7.5 µg/mL
- SI (selectivity index) [4]: 1.6

SMILES: O=C(c1c[nH]c2ccccc12)[C@@H]1C(c2ccc(F)cc2)[C@@H]2CCCN2[C@@]12C(=O)Nc1ccccc12 (stereo partly drawn) [4g, (2′R,3S,7a′S)-1′-(4-Fluorophenyl)-2′-(1H-indole-3-carbonyl)-1′,2′,5′,6′,7′,7a′-hexahydrospiro[indoline-3,3′-pyrrolizin]-2-one]
- IC50 ([1]; Chlorocebus sabaeus, Vero B): 40 µM
- IC50 [2, 5]: 20 ± 2 µM
- IC50 [2, 6]: 9.3 µg/mL
- SI (selectivity index) [2]: 2
- IC50 [3, 7]: 16 ± 1 µM
- IC50 [3, 8]: 7.4 µg/mL
- SI (selectivity index) [3]: 2.5
- melting point: 144 to 146 °C
- IC50 [4, 9]: 16.3 ± 30 µM
- IC50 [4, 10]: 7.6 µg/mL
- SI (selectivity index) [4]: 2.5
